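A five-concentration, 48-hour dose response in 96-well plates underlies each endpoint, interpolated linearly between surrounding concentrations. GI50 is the concentration that inhibits growth by half. At the TGI there is no net growth.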
Columns and labels:
Experiment in all cases: growth of human tumour cells (NCI), 48 h
786-0 renal = tested on: 786-0 renal
A498 renal = tested on: A498 renal
A549 NSCLC = tested on: A549 NSCLC
ACHN renal = tested on: ACHN renal
BT-549 breast = tested on: BT-549 breast
CAKI-1 renal = tested on: CAKI-1 renal
CCRF-CEM leukemia = tested on: CCRF-CEM leukemia
DU-145 prostate = tested on: DU-145 prostate
EKVX NSCLC = tested on: EKVX NSCLC
HCC-2998 colon = tested on: HCC-2998 colon
HCT-116 colon = tested on: HCT-116 colon
HCT-15 colon = tested on: HCT-15 colon
HL-60(TB) leukemia = tested on: HL-60(TB) leukemia
HOP-62 NSCLC = tested on: HOP-62 NSCLC
HOP-92 NSCLC = tested on: HOP-92 NSCLC
HS 578T breast = tested on: HS 578T breast
HT29 colon = tested on: HT29 colon
IGROV1 ovarian = tested on: IGROV1 ovarian
K-562 leukemia = tested on: K-562 leukemia
LOX IMVI melanoma = tested on: LOX IMVI melanoma
M14 melanoma = tested on: M14 melanoma
MALME-3M melanoma = tested on: MALME-3M melanoma
MCF7 breast = tested on: MCF7 breast
MDA-MB-231 breast = tested on: MDA-MB-231 breast
MDA-MB-435 = tested on: MDA-MB-435
MDA-MB-468 breast = tested on: MDA-MB-468 breast
MOLT-4 leukemia = tested on: MOLT-4 leukemia
NCI-H226 lung = tested on: NCI-H226 lung
NCI-H23 lung = tested on: NCI-H23 lung
NCI-H460 lung = tested on: NCI-H460 lung
NCI-H522 lung = tested on: NCI-H522 lung
NCI/ADR-RES ovarian = tested on: NCI/ADR-RES ovarian
OVCAR-3 ovarian = tested on: OVCAR-3 ovarian
OVCAR-4 ovarian = tested on: OVCAR-4 ovarian
OVCAR-5 ovarian = tested on: OVCAR-5 ovarian
OVCAR-8 ovarian = tested on: OVCAR-8 ovarian
PC-3 prostate = tested on: PC-3 prostate
RPMI-8226 leukemia = tested on: RPMI-8226 leukemia
RXF 393 renal = tested on: RXF 393 renal
SF-295 CNS = tested on: SF-295 CNS
SF-539 CNS = tested on: SF-539 CNS
SK-MEL-2 melanoma = tested on: SK-MEL-2 melanoma
SK-MEL-5 melanoma = tested on: SK-MEL-5 melanoma
SK-OV-3 ovarian = tested on: SK-OV-3 ovarian
SN12C renal = tested on: SN12C renal
SNB-19 CNS = tested on: SNB-19 CNS
SNB-75 CNS = tested on: SNB-75 CNS
SR leukemia = tested on: SR leukemia
SW-620 colon = tested on: SW-620 colon
T-47D breast = tested on: T-47D breast
TK-10 renal = tested on: TK-10 renal
U251 CNS = tested on: U251 CNS
UACC-257 melanoma = tested on: UACC-257 melanoma
UACC-62 melanoma = tested on: UACC-62 melanoma
UO-31 renal = tested on: UO-31 renal

SMILES: O=C(Nc1ccc(OCC(=O)c2ccc(Cl)cc2)cc1)Nc1ccc(Cl)c(C(F)(F)F)c1
- GI50 (786-0 renal): 5.8 µM
- TGI (786-0 renal): 26.1 µM
- GI50 (A498 renal): 3 µM
- TGI (A498 renal): 30 µM
- GI50 (A549 NSCLC): 3.69 µM
- TGI (A549 NSCLC): > 100 µM
- GI50 (ACHN renal): 3.75 µM
- TGI (ACHN renal): > 100 µM
- GI50 (BT-549 breast): 11.5 µM
- TGI (BT-549 breast): 70.3 µM
- GI50 (CAKI-1 renal): 4.1 µM
- TGI (CAKI-1 renal): > 100 µM
- GI50 (CCRF-CEM leukemia): 3.95 µM
- TGI (CCRF-CEM leukemia): > 100 µM
- GI50 (DU-145 prostate): 7.97 µM
- TGI (DU-145 prostate): > 100 µM
- GI50 (EKVX NSCLC): 3.53 µM
- TGI (EKVX NSCLC): > 100 µM
- GI50 (HCC-2998 colon): 3.4 µM
- TGI (HCC-2998 colon): > 100 µM
- GI50 (HCT-116 colon): 4.66 µM
- TGI (HCT-116 colon): > 100 µM
- GI50 (HCT-15 colon): 3.17 µM
- TGI (HCT-15 colon): > 100 µM
- GI50 (HL-60(TB) leukemia): 4.43 µM
- TGI (HL-60(TB) leukemia): > 100 µM
- GI50 (HOP-62 NSCLC): 10.5 µM
- TGI (HOP-62 NSCLC): 75.8 µM
- GI50 (HOP-92 NSCLC): 4.07 µM
- TGI (HOP-92 NSCLC): 42.1 µM
- GI50 (HS 578T breast): 4.44 µM
- TGI (HS 578T breast): > 100 µM
- GI50 (HT29 colon): 4.75 µM
- TGI (HT29 colon): > 100 µM
- GI50 (IGROV1 ovarian): 5.85 µM
- TGI (IGROV1 ovarian): > 100 µM
- GI50 (K-562 leukemia): 10.4 µM
- TGI (K-562 leukemia): > 100 µM
- GI50 (LOX IMVI melanoma): 4.41 µM
- TGI (LOX IMVI melanoma): 22.2 µM
- GI50 (M14 melanoma): 4.4 µM
- TGI (M14 melanoma): > 100 µM
- GI50 (MALME-3M melanoma): 3.61 µM
- TGI (MALME-3M melanoma): > 100 µM
- GI50 (MCF7 breast): 5.15 µM
- TGI (MCF7 breast): > 100 µM
- GI50 (MDA-MB-231 breast): 5.93 µM
- TGI (MDA-MB-231 breast): 32 µM
- GI50 (MDA-MB-435): 6.7 µM
- TGI (MDA-MB-435): > 100 µM
- GI50 (MDA-MB-468 breast): 2.97 µM
- TGI (MDA-MB-468 breast): > 100 µM
- GI50 (MOLT-4 leukemia): 3.6 µM
- TGI (MOLT-4 leukemia): > 100 µM
- GI50 (NCI-H226 lung): 3.16 µM
- TGI (NCI-H226 lung): > 100 µM
- GI50 (NCI-H23 lung): 5.83 µM
- TGI (NCI-H23 lung): 31.1 µM
- GI50 (NCI-H460 lung): 3.46 µM
- TGI (NCI-H460 lung): > 100 µM
- GI50 (NCI-H522 lung): 3.68 µM
- TGI (NCI-H522 lung): > 100 µM
- GI50 (NCI/ADR-RES ovarian): 4.06 µM
- TGI (NCI/ADR-RES ovarian): > 100 µM
- GI50 (OVCAR-3 ovarian): 4.12 µM
- TGI (OVCAR-3 ovarian): > 100 µM
- GI50 (OVCAR-4 ovarian): 5.35 µM
- TGI (OVCAR-4 ovarian): 46.1 µM
- GI50 (OVCAR-5 ovarian): 7.49 µM
- TGI (OVCAR-5 ovarian): > 100 µM
- GI50 (OVCAR-8 ovarian): 7.17 µM
- TGI (OVCAR-8 ovarian): > 100 µM
- GI50 (PC-3 prostate): 2.9 µM
- TGI (PC-3 prostate): > 100 µM
- GI50 (RPMI-8226 leukemia): 3.21 µM
- TGI (RPMI-8226 leukemia): > 100 µM
- GI50 (RXF 393 renal): 3.13 µM
- TGI (RXF 393 renal): 9.28 µM
- GI50 (SF-295 CNS): 3.8 µM
- TGI (SF-295 CNS): 32.4 µM
- GI50 (SF-539 CNS): 7.74 µM
- TGI (SF-539 CNS): 24.8 µM
- GI50 (SK-MEL-2 melanoma): 2.92 µM
- TGI (SK-MEL-2 melanoma): > 100 µM
- GI50 (SK-MEL-5 melanoma): 6.19 µM
- TGI (SK-MEL-5 melanoma): > 100 µM
- GI50 (SK-OV-3 ovarian): 14.2 µM
- TGI (SK-OV-3 ovarian): > 100 µM
- GI50 (SN12C renal): 6 µM
- TGI (SN12C renal): > 100 µM
- GI50 (SNB-19 CNS): 4.62 µM
- TGI (SNB-19 CNS): 30.1 µM
- GI50 (SNB-75 CNS): 2.53 µM
- TGI (SNB-75 CNS): 45.6 µM
- GI50 (SR leukemia): 13.7 µM
- TGI (SR leukemia): > 100 µM
- GI50 (SW-620 colon): 4.67 µM
- TGI (SW-620 colon): > 100 µM
- GI50 (T-47D breast): 3.25 µM
- TGI (T-47D breast): > 100 µM
- GI50 (TK-10 renal): 15.9 µM
- TGI (TK-10 renal): > 100 µM
- GI50 (U251 CNS): 5.48 µM
- TGI (U251 CNS): 25.8 µM
- GI50 (UACC-257 melanoma): 3.55 µM
- TGI (UACC-257 melanoma): > 100 µM
- GI50 (UACC-62 melanoma): 3.28 µM
- TGI (UACC-62 melanoma): > 100 µM
- GI50 (UO-31 renal): 3.44 µM
- TGI (UO-31 renal): > 100 µM
